Test results from ChEMBL document CHEMBL5724914, “Linking interpersonal differences in gut microbiota composition and drug biotransformation activity” (2024).

Columns and labels:
[1] = The drug is tested on Z-030 corresponding to mouse gut metagenome with ENA study accession number: PRJEB37062 and ENA sample accession number: ERS12561829 for biotransformation under anaerobic condition. The drug concentrations were measured over 9 timepoints collected between 0 and 24 hours of incubation by liquid-chromatography-coupled mass spectrometry (LC–MS); conditions: 2 µM
[2] = The drug is tested on Z-029 corresponding to rat gut metagenome with ENA study accession number: PRJEB37062 and ENA sample accession number: ERS12561828 for biotransformation under anaerobic condition. The drug concentrations were measured over 9 timepoints collected between 0 and 24 hours of incubation by liquid-chromatography-coupled mass spectrometry (LC–MS); conditions: 2 µM
[3] = The drug is tested on Z-023 corresponding to metagenome with ENA study accession number: PRJEB37062 and ENA sample accession number: ERS12561822 for biotransformation under anaerobic condition. The drug concentrations were measured over 9 timepoints collected between 0 and 24 hours of incubation by liquid-chromatography-coupled mass spectrometry (LC–MS); conditions: 2 µM
[4] = The drug is tested on Z-011 corresponding to mouse gut metagenome with ENA study accession number: PRJEB37062 and ENA sample accession number: ERS12561811 for biotransformation under anaerobic condition. The drug concentrations were measured over 9 timepoints collected between 0 and 24 hours of incubation by liquid-chromatography-coupled mass spectrometry (LC–MS); conditions: 2 µM
[5] = The drug is tested on Z-009 corresponding to pig gut metagenome with ENA study accession number: PRJEB37062 and ENA sample accession number: ERS12561809 for biotransformation under anaerobic condition. The drug concentrations were measured over 9 timepoints collected between 0 and 24 hours of incubation by liquid-chromatography-coupled mass spectrometry (LC–MS); conditions: 2 µM
[6] = The drug is tested on Z-004 corresponding to metagenome with ENA study accession number: PRJEB37062 and ENA sample accession number: ERS12561804 for biotransformation under anaerobic condition. The drug concentrations were measured over 9 timepoints collected between 0 and 24 hours of incubation by liquid-chromatography-coupled mass spectrometry (LC–MS); conditions: 2 µM
[7] = The drug is tested on WLS-370 corresponding to human gut metagenome with ENA study accession number: PRJEB37062 and ENA sample accession number: ERS12561793 for biotransformation under anaerobic condition. The drug concentrations were measured over 9 timepoints collected between 0 and 24 hours of incubation by liquid-chromatography-coupled mass spectrometry (LC–MS); conditions: 2 µM
[8] = The drug is tested on WLS-090 corresponding to human gut metagenome with ENA study accession number: PRJEB37062 and ENA sample accession number: ERS12561753 for biotransformation under anaerobic condition. The drug concentrations were measured over 9 timepoints collected between 0 and 24 hours of incubation by liquid-chromatography-coupled mass spectrometry (LC–MS); conditions: 2 µM
[9] = The drug is tested on WLS-086 corresponding to human gut metagenome with ENA study accession number: PRJEB37062 and ENA sample accession number: ERS12561752 for biotransformation under anaerobic condition. The drug concentrations were measured over 9 timepoints collected between 0 and 24 hours of incubation by liquid-chromatography-coupled mass spectrometry (LC–MS); conditions: 2 µM
[10] = human gut metagenome, 24 h, 2 µM
[11] = human gut metagenome, 24 h, 2 µM; remark: listed apart in the source
[12] = human gut metagenome, 24 h, 2 µM; remark: listed apart in the source
[13] = human gut metagenome, 24 h, 2 µM; remark: listed apart in the source
[14] = human gut metagenome, 24 h, 2 µM; remark: listed apart in the source
[15] = human gut metagenome, 24 h, 2 µM; remark: listed apart in the source
[16] = human gut metagenome, 24 h, 2 µM; remark: listed apart in the source
[17] = human gut metagenome, 24 h, 2 µM; remark: listed apart in the source
[18] = human gut metagenome, 24 h, 2 µM; remark: listed apart in the source
[19] = human gut metagenome, 24 h, 2 µM; remark: listed apart in the source
[20] = human gut metagenome, 24 h, 2 µM; remark: listed apart in the source
Also: call rule not given here.

Row | SMILES | Bacterial Biotransformation [1] | Bacterial Biotransformation [2] | Bacterial Biotransformation [3] | Bacterial Biotransformation [4] | Bacterial Biotransformation [5] | Bacterial Biotransformation [6] | Bacterial Biotransformation [7] | Bacterial Biotransformation [8] | Bacterial Biotransformation [9] | Bacterial Biotransformation [10] | Bacterial Biotransformation [11] | Bacterial Biotransformation [12] | Bacterial Biotransformation [13] | Bacterial Biotransformation [14] | Bacterial Biotransformation [15] | Bacterial Biotransformation [16] | Bacterial Biotransformation [17] | Bacterial Biotransformation [18] | Bacterial Biotransformation [19] | Bacterial Biotransformation [20]
1 | Nc1ccc(/N=N/c2ccccc2)c(N)n1 [PHENAZOPYRIDINE] | Compound metabolized | Compound metabolized | Compound metabolized | Compound metabolized | Compound metabolized | Compound metabolized | Compound metabolized | Compound metabolized | Compound metabolized | Compound metabolized | Compound metabolized | Compound metabolized | Compound metabolized | Compound metabolized | Compound metabolized | Compound metabolized | Compound metabolized | Compound metabolized | Compound metabolized | Compound metabolized
2 | CC(C(=O)O)c1ccc2c(c1)Cc1cccnc1O2 (stereo not given) [PRANOPROFEN] | Compound metabolized | Compound metabolized | Compound metabolized | Compound metabolized | Compound metabolized | Compound metabolized | Compound metabolized | Compound metabolized | Compound metabolized | Compound metabolized | Compound metabolized | Compound metabolized | Compound metabolized | Compound metabolized | Compound metabolized | Compound metabolized | Compound metabolized | Compound metabolized | Compound metabolized | Compound metabolized
3 | CCc1nc(N)nc(N)c1-c1ccc(Cl)cc1 [PYRIMETHAMINE] | Compound NOT metabolized | Compound NOT metabolized | Compound NOT metabolized | Compound NOT metabolized | Compound NOT metabolized | Compound NOT metabolized | Compound NOT metabolized | Compound metabolized | Compound metabolized | Compound NOT metabolized | Compound NOT metabolized | Compound NOT metabolized | Compound metabolized | Compound NOT metabolized | Compound metabolized | Compound metabolized | Compound NOT metabolized | Compound NOT metabolized | Compound NOT metabolized | Compound NOT metabolized
4 | COc1ccccc1OCC(O)CN1CCN(CC(=O)Nc2c(C)cccc2C)CC1 (stereo not given) [RANOLAZINE] | Compound NOT metabolized | Compound NOT metabolized | Compound metabolized | Compound NOT metabolized | Compound NOT metabolized | Compound NOT metabolized | Compound NOT metabolized | Compound NOT metabolized | Compound metabolized | Compound NOT metabolized | Compound NOT metabolized | Compound NOT metabolized | Compound NOT metabolized | Compound NOT metabolized | Compound NOT metabolized | Compound NOT metabolized | Compound NOT metabolized | Compound NOT metabolized | Compound NOT metabolized | Compound NOT metabolized
5 | CCCc1nn(C)c2c(=O)[nH]c(-c3cc(S(=O)(=O)N4CCN(C)CC4)ccc3OCC)nc12.O=C(O)CC(O)(CC(=O)O)C(=O)O [SILDENAFIL CITRATE] | Compound NOT metabolized | Compound NOT metabolized | Compound metabolized | Compound NOT metabolized | Compound NOT metabolized | Compound NOT metabolized | Compound NOT metabolized | Compound metabolized | Compound metabolized | Compound NOT metabolized | Compound NOT metabolized | Compound NOT metabolized | Compound NOT metabolized | Compound metabolized | Compound metabolized | Compound metabolized | Compound NOT metabolized | Compound NOT metabolized | Compound NOT metabolized | Compound NOT metabolized
6 | CN1C(C(=O)Nc2ccccn2)=C(O)c2sccc2S1(=O)=O [TENOXICAM] | Compound NOT metabolized | Compound NOT metabolized | Compound metabolized | Compound NOT metabolized | Compound NOT metabolized | Compound NOT metabolized | Compound NOT metabolized | Compound NOT metabolized | Compound NOT metabolized | Compound NOT metabolized | Compound NOT metabolized | Compound metabolized | Compound NOT metabolized | Compound NOT metabolized | Compound NOT metabolized | Compound NOT metabolized | Compound NOT metabolized | Compound metabolized | Compound NOT metabolized | Compound NOT metabolized
